This passage reports Ki results from patent EP2970215B1, “PYRROLIDINE DERIVATIVES, PHARMACEUTICAL COMPOSITIONS CONTAINING THEM, AND THEIR USE IN THERAPY” (AbbVie Deutschland GmbH & Co. KG, priority 2013, dated 2014).

A value given as a limit tells only on which side of the number the result lay.

The target of this experiment is T1, human GlyT1c transporter (Homo sapiens, UniProt P48067).
T1 construct: expressed in transfected cells; host or cells: CHO cells (recombinant; line hGlyT1c_5_CHO is named for the uptake assay)
T1 sequence (P48067 1-706): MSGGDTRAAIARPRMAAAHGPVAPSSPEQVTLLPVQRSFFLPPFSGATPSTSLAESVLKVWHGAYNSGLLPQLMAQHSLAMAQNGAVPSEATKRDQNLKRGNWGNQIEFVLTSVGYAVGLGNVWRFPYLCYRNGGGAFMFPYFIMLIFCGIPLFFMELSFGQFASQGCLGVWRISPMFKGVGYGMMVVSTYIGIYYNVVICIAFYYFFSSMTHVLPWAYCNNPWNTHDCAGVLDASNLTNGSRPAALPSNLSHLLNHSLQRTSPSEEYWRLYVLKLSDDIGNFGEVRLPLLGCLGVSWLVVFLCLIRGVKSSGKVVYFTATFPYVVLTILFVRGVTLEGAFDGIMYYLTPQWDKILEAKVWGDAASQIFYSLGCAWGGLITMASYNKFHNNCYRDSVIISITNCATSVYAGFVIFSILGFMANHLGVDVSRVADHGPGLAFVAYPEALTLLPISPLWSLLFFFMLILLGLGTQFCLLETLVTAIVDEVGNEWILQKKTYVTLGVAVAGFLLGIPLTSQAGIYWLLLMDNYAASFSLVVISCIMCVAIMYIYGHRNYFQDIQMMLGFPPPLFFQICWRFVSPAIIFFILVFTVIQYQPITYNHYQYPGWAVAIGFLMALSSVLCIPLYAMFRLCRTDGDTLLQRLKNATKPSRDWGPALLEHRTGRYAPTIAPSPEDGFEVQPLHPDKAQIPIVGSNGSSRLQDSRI
Kind of experiment: Radioligand binding assay using recombinant CHO cell membranes expressing human GlyT1. The following applies: radioligand binding to human GlyT1c transporter-expressing membranes. An excerpt: 2. Radioligand binding assays using recombinant CHO cell membranes expressing human GlyT1: […]
Take `Cc1oc2ccccc2c1CN[C@H]1CN(S(=O)(=O)c2cn(C)cn2)C[C@@H]1c1ccccc1` [Example 443, (3R,4S)-N-[(2-methyl-1-benzofuran-3-yl)methyl]-1-[(1-methyl-1H-imidazol-4-yl)sulfonyl]-4-phenylpyrrolidin-3-amine]: the Ki (in general, a measure of affinity in units of concentration, obtained from inhibition or displacement) was no more than 1000 nM.
As to `Cn1cnc(S(=O)(=O)N2C[C@@H](Nc3ccc(F)c(Cl)c3)[C@H](c3ccc(F)cc3)C2)c1` (relative stereo) [Example 160, trans-N-(3-chloro-4-fluorophenyl)-4-(4-fluorophenyl)-1-[(1-methyl-1H-imidazol-4-yl)sulfonyl]pyrrolidin-3-amine], the Ki was no more than 10 nM.
Regarding `Cc1ccc(N[C@H]2CN(S(=O)(=O)c3cn(C)cn3)C[C@@H]2c2ccc(F)cc2)cc1C(F)(F)F` [Example 638, (3R,4S)-4-(4-fluorophenyl)-1-[(1-methyl-1H-imidazol-4-yl)sulfonyl]-N-[4-methyl-3-(trifluoromethyl)phenyl]pyrrolidin-3-amine], the Ki was no more than 1000 nM.
In the case of `Cn1cnc(S(=O)(=O)N2C[C@@H](C(=O)Nc3cccc(C#N)c3)[C@H](c3ccc(F)cc3)C2)c1` (relative stereo) [Example 347, Trans-N-(3-cyanophenyl)-4-(4-fluorophenyl)-1-[(1-methyl-1H-imidazol-4-yl)sulfonyl]pyrrolidine-3-carboxamide], the Ki was no more than 10000 nM.
For `Cn1cnc(S(=O)(=O)N2C[C@@H](OCc3ccc(S(C)(=O)=O)cc3)[C@H](c3ccc(F)cc3)C2)c1` (relative stereo) [Example 713, 4-{[trans-3-(4-fluorophenyl)-4-{[4-(methylsulfonyl)benzyl]oxy}pyrrolidin-1-yl]sulfonyl}-1-methyl-1H-imidazole], the Ki is greater than 10000 nM.
Regarding `Cc1ncc(S(=O)(=O)N2C[C@H](Nc3ccc(F)c(C(F)(F)F)c3)[C@@H](c3ccc(F)cc3)C2)n1C` [Example 758, (3R,4S)-1-[(1,2-dimethyl-1H-imidazol-5-yl)sulfonyl]-4-(4-fluorophenyl)-N-[4-fluoro-3-(trifluoromethyl)phenyl]pyrrolidin-3-amine], the inhibition constant Ki was no more than 10000 nM.
For `Cc1nc(S(=O)(=O)N2C[C@H](Nc3ccc(F)c(F)c3)[C@@H](c3ccc(F)cc3)C2)cn1C` [Example 755, (3R,4S)-N-(3,4-difluorophenyl)-1-[(1,2-dimethyl-1H-imidazol-4-yl)sulfonyl]-4-(4-fluorophenyl)pyrrolidin-3-amine], the Ki is no less than 10000 nM.
Regarding `Cn1cnc(S(=O)(=O)N2C[C@H](NCC3(C(F)(F)F)CC3)[C@@H](c3ccc(F)cc3)C2)c1` [Example 386, (3R,4S)-4-(4-fluorophenyl)-1-[(1-methyl-1H-imidazol-4-yl)sulfonyl]-N-{[-(trifluoromethyl)cyclopropyl]methyl}pyrrolidin-3-amine], the inhibition constant (Ki) is no more than 1000 nM.
Turning to `Cn1cnc(S(=O)(=O)N2C[C@@H](CNc3ccccc3)[C@H](c3ccc(F)cc3)C2)c1` (relative stereo) [Example 290, N-({trans-4-(4-fluorophenyl)-1-[(1-methyl-1H-imidazol-4-yl)sulfonyl]pyrrolidin-3-yl}methyl)aniline], the inhibitory constant (Ki) is no more than 10000 nM.
As for `CCCCC(F)(F)CN[C@H]1CN(S(=O)(=O)c2cn(C)cn2)C[C@@H]1c1ccc(F)cc1` [Example 733, (3R,4S)-N-(2,2-difluorohexyl)-4-(4-fluorophenyl)-1-[(1-methyl-1H-imidazol-4-yl)sulfonyl]pyrrolidin-3-amine], the Ki was no more than 10 nM.
In the case of `Cn1cnc(S(=O)(=O)N2C[C@@H](Nc3cccc(F)c3)[C@H](c3ccccc3F)C2)c1` (relative stereo) [Example 199, trans-4-(2-fluorophenyl)-N-(3-fluorophenyl)-1-[(1-methyl-1H-imidazol-4-yl)sulfonyl]pyrrolidin-3-amine], the Ki was no more than 1000 nM.
As for `Cn1cnc(S(=O)(=O)N2C[C@@H](Nc3ccc(Cl)cc3)[C@H](c3ccccc3F)C2)c1` (relative stereo) [Example 202, trans-N-(4-chlorophenyl)-4-(2-fluorophenyl)-1-[(1-methyl-1H-imidazol-4-yl)sulfonyl]pyrrolidin-3-amine], the inhibitory constant (Ki) was no more than 1000 nM.
